Assay results taken from US20240409585A1, “MACROCYCLIC IMMUNOMODULATORS” (priority 2021, published 2024).
Numbered stars: 1 amine (or outer) side, 2 acyl side, 3 side chain; on linkers, the order of the positions; unused ones are H or OH. Bridge positions count the residues as written; N and C are the ends. Square brackets hold non-standard residues; d marks the D form. Peptide text beside a SMILES is read from it. * marks the point of attachment. ξ: configuration not given here. X10 = O=C(CCc1c[nH]cn1)NCc1cccc(C[C@H](N[*:1])C(=O)[*:2])c1; Bip(4'-COOH) = N[C@@H](Cc1ccc(-c2ccc(C(=O)O)cc2)cc1)C(=O)O; Bip(4'-NHAc) = CC(=O)Nc1ccc(-c2ccc(C[C@H](N)C(=O)O)cc2)cc1; X14 = O=C(C[C@H](N[*:1])C(=O)[*:2])NS(=O)(=O)c1ccc(F)cc1; Phe(3-CF3) = N[C@@H](Cc1cccc(C(F)(F)F)c1)C(=O)O; Ala(morpholin-4-yl) = N[C@@H](CN1CCOCC1)C(=O)O; Phe(3-COOH) = N[C@@H](Cc1cccc(C(=O)O)c1)C(=O)O; Phe(4-COOH) = N[C@@H](Cc1ccc(C(=O)O)cc1)C(=O)O; Bpa = N[C@@H](Cc1ccc(C(=O)c2ccccc2)cc1)C(=O)O; X5 = CS(=O)(=O)NC(=O)C[C@H](N[*:1])C(=O)[*:2]; Bip = N[C@@H](Cc1ccc(-c2ccccc2)cc1)C(=O)O; Phe(3-NH2) = Nc1cccc(C[C@H](N)C(=O)O)c1; Phe(3-Me) = Cc1cccc(C[C@H](N)C(=O)O)c1; Abu(3S-NH2) = C[C@H](N)[C@H](N)C(=O)O; Cha = N[C@@H](CC1CCCCC1)C(=O)O; Carboxymethyl = O=C(O)C*; NMeA = CN[C@@H](C)C(=O)O; Orn = NCCC[C@H](N)C(=O)O; Dab = NCC[C@H](N)C(=O)O; ξC = NC(CS)C(=O)O

What was measured:
[1] = molecular target: T1, PE-labeled human PD-L1-Ig binding to Jurkat cell line over-expressing human PD-1 (Jurkat-PD-1) (Homo sapiens, UniProt Q15116); experiment: Jurkat-PD-1 Cell Binding High-Content Screening Assay (CBA): Method 1; conditions: Jurkat-PD-1 cells, PE-labeled PD-L1-Ig; μM; read-out: CBA Method 1 μM
T1 construct: expressed in transfected cells; host or cells: Jurkat
Protocol: Phycoerythrin (PE) was covalently linked to the Ig epitope tag of human PD-L1-Ig and fluorescently-labeled PD-L1-Ig was used for binding studies with a Jurkat cell line over-expressing human PD-1 (Jurkat-PD-1). Briefly, 8×10^3 Jurkat-hPD-1 cells were seeded into 384 well plates in 20 μl of DMEM supplemented with 10% fetal calf serum. 100 nl of compound was added to cells followed by incubation at 37° C. for 2 hours. Then, 5 μl of PE-labeled PD-L1-Ig (20 nM final), diluted in DMEM supplemented with 10% fetal calf serum. […] Data was collected and processed using a Cell Insight NXT High Content Imager and associated software.

[2] = molecular target: T1, PE-labeled human PD-L1-Ig binding to Jurkat cell line over-expressing human PD-1 (Jurkat-PD-1); experiment: Jurkat-PD-1 Cell Binding High-Content Screening Assay (CBA): Method 2 (presence and absence of tween-20); conditions: Jurkat-PD-1 cells, PE-labeled PD-L1-Ig 20 nM; presence or absence of tween-20 not given; head μM; read-out: CBA Method 2 μM
How it was run: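 Compounds incubated with Jurkat cells overexpressing human PD-1 for 2 h at 37° C, tested with and without tween-20 to flag aggregation. PE-labeled human PD-L1-Ig (20 nM final) added in DMEM/10% FCS; binding read by high-content imaging.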

T1 sequence (Q15116 25-288): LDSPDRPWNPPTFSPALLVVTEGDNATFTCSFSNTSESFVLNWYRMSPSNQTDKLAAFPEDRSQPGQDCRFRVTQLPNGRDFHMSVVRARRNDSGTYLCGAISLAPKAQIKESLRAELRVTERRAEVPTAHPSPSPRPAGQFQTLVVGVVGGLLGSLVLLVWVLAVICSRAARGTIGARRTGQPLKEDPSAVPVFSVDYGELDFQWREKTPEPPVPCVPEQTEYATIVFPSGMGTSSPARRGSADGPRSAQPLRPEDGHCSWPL

IC50 [1] [µM]	IC50 [2] [µM]	Compound
0.12	0.12	CC(C)C[C@@H]1NC(=O)[C@H](Cc2c[nH]c3ccccc23)NC(=O)[C@H](CC(N)=O)NC(=O)[C@H](Cc2cccc(C(=O)O)c2)NC(=O)[C@H](Cc2ccccc2)NC(=O)CSC[C@@H](C(=O)NCC(N)=O)NC(=O)[C@H](CO)NC(=O)[C@H](C(C)C)NC(=O)[C@H](CC(C)C)NC(=O)[C@H](CC(N)=O)NC(=O)[C@@H](CC(C)C)NC(=O)[C@H](C)N(C)C(=O)[C@H](C(C)C)NC(=O)[C@H](Cc2ccc(-c3ccccc3)cc2)NC1=O [Example 5026] ({CH2CO}-F[Phe(3-COOH)]NWL[Bip]V[NMeA][dL]NLVSCG-NH2; thioether N-14)
0.31	0.56	CC(C)C[C@@H]1NC(=O)[C@H](Cc2c[nH]c3ccccc23)NC(=O)[C@H](CC(N)=O)NC(=O)[C@H](Cc2ccc(O)cc2)NC(=O)[C@H](Cc2ccccc2)NC(=O)CSC[C@@H](C(=O)NCC(N)=O)NC(=O)[C@H](CO)NC(=O)[C@H](C(C)C)NC(=O)[C@H](CC(C)C)NC(=O)[C@H](CC(N)=O)NC(=O)[C@@H](CC(C)C)NC(=O)[C@H](C)N(C)C(=O)[C@H](C(C)C)NC(=O)[C@H](Cc2ccc(-c3ccccc3)cc2)NC1=O [Example 5025] ({CH2CO}-FYNWL[Bip]V[NMeA][dL]NLVSCG-NH2; thioether N-14)
0.514	0.517	Cc1cccc(C[C@@H]2NC(=O)[C@H](CC(=O)NS(C)(=O)=O)NC(=O)[C@H](Cc3ccc(OCC(=O)O)cc3)NC(=O)[C@H](CN3CCOCC3)NC(=O)CSC[C@@H](C(=O)N[C@@H](CCN)C(N)=O)NC(=O)[C@H](CCCN)NC(=O)[C@H](C(C)C)NC(=O)[C@H](CC3CCCCC3)NC(=O)[C@H](CCN)NC(=O)[C@@H](CC(C)C)NC(=O)[C@H](C)N(C)C(=O)[C@H](Cc3ccc(C(=O)O)cc3)NC(=O)[C@H](Cc3ccc(-c4ccccc4)cc3)NC(=O)[C@H](Cc3ccc(C(=O)O)cc3)NC2=O)c1 [Example 5046] ({CH2CO}-[Ala(morpholin-4-yl)]Y(Carboxymethyl)[X5][Phe(3-Me)][Phe(4-COOH)][Bip][Phe(4-COOH)][NMeA][dL][Dab][Cha]V[Orn]C[Dab]-NH2; thioether N-14)
0.0315	0.01	CC(C)C[C@H]1NC(=O)[C@H](C)N(C)C(=O)[C@H](CCCN)NC(=O)[C@H](Cc2ccc(-c3ccccc3)cc2)NC(=O)[C@H](Cc2ccc(-c3ccc(C(=O)O)cc3)cc2)NC(=O)[C@H](Cc2cccc(C(F)(F)F)c2)NC(=O)[C@H](CC(=O)O)NC(=O)[C@H](Cc2ccc(-c3ccc(C(=O)O)cc3)cc2)NC(=O)[C@H](Cc2ccc(OCC(=O)O)cc2)NC(=O)CSC[C@@H](C(=O)N[C@@H](CCN)C(N)=O)NC(=O)[C@H](CCC(=O)O)NC(=O)[C@H](C(C)C)NC(=O)[C@H](CC2CCCCC2)NC(=O)[C@H](CCN)NC1=O [Example 5085] ({CH2CO}-Y(Carboxymethyl)[Bip(4'-COOH)]D[Phe(3-CF3)][Bip(4'-COOH)][Bip][Orn][NMeA][dL][Dab][Cha]VEC[Dab]-NH2; thioether N-14)
0.0243	0.0332	CC(=O)Nc1ccc(-c2ccc(C[C@@H]3NC(=O)[C@H](Cc4cccc(C(F)(F)F)c4)NC(=O)[C@H](CC(=O)O)NC(=O)[C@H](Cc4ccc(-c5ccc(C(=O)O)cc5)cc4)NC(=O)[C@H](Cc4ccc(OCC(=O)O)cc4)NC(=O)CSC[C@@H](C(=O)N[C@@H](CCN)C(N)=O)NC(=O)[C@H](CCC(=O)O)NC(=O)[C@H](C(C)C)NC(=O)[C@H](CC4CCCCC4)NC(=O)[C@H](CCN)NC(=O)[C@@H](CC(C)C)NC(=O)[C@H](C)N(C)C(=O)[C@H](CCCN)NC(=O)[C@H](Cc4ccc(-c5ccccc5)cc4)NC3=O)cc2)cc1 [Example 5084] ({CH2CO}-Y(Carboxymethyl)[Bip(4'-COOH)]D[Phe(3-CF3)][Bip(4'-NHAc)][Bip][Orn][NMeA][dL][Dab][Cha]VEC[Dab]-NH2; thioether N-14)
0.0087	0.0068	Cc1cccc(C[C@@H]2NC(=O)[C@H](CC(=O)O)NC(=O)[C@H](Cc3ccc(OCC(=O)O)cc3)NC(=O)[C@H](CN3CCOCC3)NC(=O)CSCC(C(=O)N[C@@H](CCN)C(N)=O)NC(=O)[C@H](CCCN)NC(=O)[C@H](C(C)C)NC(=O)[C@H](CC3CCCCC3)NC(=O)[C@H](CCN)NC(=O)[C@@H](CC(C)C)NC(=O)[C@H](C)N(C)C(=O)[C@H](CCC(N)=O)NC(=O)[C@H](Cc3ccc(-c4ccccc4)cc3)NC(=O)[C@H](Cc3ccc(C(=O)c4ccccc4)cc3)NC2=O)c1 (stereo partly drawn) [Example 5031] ({CH2CO}-[Ala(morpholin-4-yl)]Y(Carboxymethyl)D[Phe(3-Me)][Bpa][Bip]Q[NMeA][dL][Dab][Cha]V[Orn][ξC][Dab]-NH2; thioether N-14)
0.01	0.0095	COC[C@@H]1NC(=O)CSC[C@@H](C(=O)N[C@@H](CCN)C(N)=O)NC(=O)[C@H](CCCN)NC(=O)[C@H](C(C)C)NC(=O)[C@H](CC2CCCCC2)NC(=O)[C@H](CCN)NC(=O)[C@@H](CC(C)C)NC(=O)[C@H](C)N(C)C(=O)[C@H](CCC(N)=O)NC(=O)[C@H](Cc2ccc(-c3ccccc3)cc2)NC(=O)[C@H](Cc2ccc(-c3ccc(NC(C)=O)cc3)cc2)NC(=O)[C@H](Cc2cccc(C)c2)NC(=O)[C@H](CC(=O)O)NC(=O)[C@H](Cc2ccc(OCC(=O)O)cc2)NC1=O [Example 5056] ({CH2CO}-S(Me)Y(Carboxymethyl)D[Phe(3-Me)][Bip(4'-NHAc)][Bip]Q[NMeA][dL][Dab][Cha]V[Orn]C[Dab]-NH2; thioether N-14)
0.0089	0.0106	COC[C@@H]1NC(=O)CSC[C@@H](C(=O)N[C@@H](CCN)C(N)=O)NC(=O)[C@H](CCCN)NC(=O)[C@H](C(C)C)NC(=O)[C@H](CC2CCCCC2)NC(=O)[C@H](CCN)NC(=O)[C@@H](CC(C)C)NC(=O)[C@H](C)N(C)C(=O)[C@H](CCC(N)=O)NC(=O)[C@H](Cc2ccc(-c3ccccc3)cc2)NC(=O)[C@H](Cc2ccc(-c3ccc(C(=O)O)cc3)cc2)NC(=O)[C@H](Cc2cccc(C)c2)NC(=O)[C@H](CC(=O)O)NC(=O)[C@H](Cc2ccc(OCC(=O)O)cc2)NC1=O [Example 5057] ({CH2CO}-S(Me)Y(Carboxymethyl)D[Phe(3-Me)][Bip(4'-COOH)][Bip]Q[NMeA][dL][Dab][Cha]V[Orn]C[Dab]-NH2; thioether N-14)
0.138	0.229	CC(C)C[C@H]1NC(=O)[C@H](C)N(C)C(=O)[C@H](CCC(N)=O)NC(=O)[C@H](Cc2ccc(-c3ccccc3)cc2)NC(=O)[C@H](Cc2ccc(C(=O)O)cc2)NC(=O)[C@H](Cc2cccc(C(F)(F)F)c2)NC(=O)[C@H](CC(=O)NS(=O)(=O)c2ccc(F)cc2)NC(=O)[C@H](Cc2ccc(C(=O)O)cc2)NC(=O)[C@H](CN2CCOCC2)NC(=O)CSC[C@@H](C(=O)N[C@@H](CCN)C(N)=O)NC(=O)[C@H](CCCN)NC(=O)[C@H](C(C)C)NC(=O)[C@H](CC2CCCCC2)NC(=O)[C@H](CCN)NC1=O [Example 5079] ({CH2CO}-[Ala(morpholin-4-yl)][Phe(4-COOH)][X14][Phe(3-CF3)][Phe(4-COOH)][Bip]Q[NMeA][dL][Dab][Cha]V[Orn]C[Dab]-NH2; thioether N-14)
0.0159	0.0146	Cc1cccc(C[C@@H]2NC(=O)[C@H](CC(=O)O)NC(=O)[C@H](Cc3ccc(OCC(=O)O)cc3)NC(=O)[C@H](CN3CCOCC3)NC(=O)CSC[C@@H](C(=O)N[C@@H](CCN)C(N)=O)NC(=O)[C@H](CCCN)NC(=O)[C@H](C(C)C)NC(=O)[C@H](Cc3cccc(N)c3)NC(=O)[C@H](CCN)NC(=O)[C@@H](CC(C)C)NC(=O)[C@H](C)N(C)C(=O)[C@H](CCC(N)=O)NC(=O)[C@H](Cc3ccc(-c4ccccc4)cc3)NC(=O)[C@H](Cc3ccc(C(=O)O)cc3)NC2=O)c1 [Example 5040] ({CH2CO}-[Ala(morpholin-4-yl)]Y(Carboxymethyl)D[Phe(3-Me)][Phe(4-COOH)][Bip]Q[NMeA][dL][Dab][Phe(3-NH2)]V[Orn]C[Dab]-NH2; thioether N-14)
0.0032	0.0021	CC(=O)Nc1ccc(-c2ccc(C[C@@H]3NC(=O)[C@H](Cc4cccc(C)c4)NC(=O)[C@H](CC(=O)O)NC(=O)[C@H](Cc4ccc(C(=O)O)cc4)NC(=O)[C@H]([C@H](C)N)NC(=O)CSC[C@@H](C(=O)N[C@@H](CCN)C(N)=O)NC(=O)[C@H](CCCN)NC(=O)[C@H](C(C)C)NC(=O)[C@H](CC4CCCCC4)NC(=O)[C@H](CCN)NC(=O)[C@@H](CC(C)C)NC(=O)[C@H](C)N(C)C(=O)[C@H](CCC(N)=O)NC(=O)[C@H](Cc4ccc(-c5ccccc5)cc4)NC3=O)cc2)cc1 [Example 5051] ({CH2CO}-[Abu(3S-NH2)][Phe(4-COOH)]D[Phe(3-Me)][Bip(4'-NHAc)][Bip]Q[NMeA][dL][Dab][Cha]V[Orn]C[Dab]-NH2; thioether N-14)
0.0042	0.0035	Cc1cccc(C[C@@H]2NC(=O)[C@H](CC(=O)O)NC(=O)[C@H](Cc3ccc(OCC(=O)O)cc3)NC(=O)[C@H](Cc3cccc(CNC(=O)CCc4c[nH]cn4)c3)NC(=O)CSC[C@@H](C(=O)N[C@@H](CCN)C(N)=O)NC(=O)[C@H](CCCN)NC(=O)[C@H](C(C)C)NC(=O)[C@H](CC3CCCCC3)NC(=O)[C@H](CCN)NC(=O)[C@@H](CC(C)C)NC(=O)[C@H](C)N(C)C(=O)[C@H](CCC(N)=O)NC(=O)[C@H](Cc3ccc(-c4ccccc4)cc3)NC(=O)[C@H](Cc3ccc(C(=O)O)cc3)NC2=O)c1 [Example 5035] ({CH2CO}-[X10]Y(Carboxymethyl)D[Phe(3-Me)][Phe(4-COOH)][Bip]Q[NMeA][dL][Dab][Cha]V[Orn]C[Dab]-NH2; thioether N-14)
